Measurements as given in patent US9067884B2, “Pyrrole compounds that modulate HSP90 activity” (Synta Pharmaceuticals Corp., priority 2008, dated 2015).

Columns and labels:
Her2 = assay: Degradation of Her2 in BT-474 cells (Method 1, Western blot); type: cell-based, Human; details: 0.5 μM, overnight
Experimental: Human high-Her2 breast carcinoma BT474 (HTB-20), SK-BR-3 (HTB-30) and MCF-7 breast carcinoma (HTB-22) from American Type Culture Collection, VA, USA were grown in Dulbecco's modified Eagle's medium with 4 mM L-glutamine and antibiotics (100 IU/ml penicillin and 100 μg/ml streptomycine; GibcoBRL). To obtain exponential cell growth, cells were trypsinized, counted and seeded at a cell density of 0.5×10^6 cells/ml regularly, every 3 days. All experiments were performed on day 1 after cell passage.
BT-474 cells are treated with 0.5 μM, 2 μM, or 5 μM of 17AAG (a positive control) or 0.5 μM, 2 μM, or 5 μM of a compound of the invention overnight in DMEM medium. After treatment, each cytoplasmic sample, is prepared from 1×10^6 cells by incubation of cell lysis buffer (#9803, Cell Signaling Technology) on ice for 10 minutes. The resulting supernatant used as the cytosol fractions is dissolved with sample buffer for SDS-PAGE and run on a SDS-PAGE gel, blotted onto a nitrocellulose membrane by using semi-dry transfer. Non-specific binding to nitrocellulose is blocked with 5% skim milk in TBS with 0.5% Tween at room temperature for 1 hour, then probed with anti-Her2/ErB2 mAb (rabbit IgG, #2242, Cell Signaling) and anti-Tubulin (T9026, Sigma) as housekeeping control protein. […]

Hsp90 = assay: IC50 range of compounds of the invention for  inhibition of Hsp90 (Method 2: MV-4-11 cells, Cell Counting Kit-8); type: cell-based, human; details: text: IC50 range for Her2 degradation, 72 hours, cell survival by Cell Counting Kit-8
Experimental: MV-4-11 cells (20,000 cells/well) were cultured in 96-well plates and maintained at 37° C. for several hours. The cells were treated with a compound of the invention or 17AAG (a positive control) at various concentrations and incubated at 37° C. for 72 hours. Cell survival was measured with Cell Counting Kit-8 (Dojindo Laboratories, Cat. # CK04).

Compound | degradation of Her2 (Her2) | IC50 (Hsp90)
C=CCNC1=C2C[C@@H](C)C[C@H](OC)[C@H](O)[C@@H](C)/C=C(\C)[C@H](OC(N)=O)[C@@H](OC)/C=C\C=C(/C)C(=O)NC(=CC1=O)C2=O [Compound 17AAG, 17-allylamino-17-demethoxygeldanamycin] | partial degradation of Her2 | 
CCNC(=O)c1ccc(-c2cc(C(C)C)c(O)cc2O)n1-c1ccc(N(C)C)cc1 [Compound 3, 5-(2,4-dihydroxy-5-isopropylphenyl)-1-(4-(dimethylamino)phenyl)-N-ethyl-1H-pyrrole-2-carboxamide] |  | > 1000 nM
